Row | melting point [°C] | SMILES
1 | 239 to 240 | CC(C)n1nc(-c2sc(Nc3cccc4ccccc34)nc2-c2ccccc2)ccc1=O [Example 72, 2-Isopropyl-6-[2-(1-naphthylamino)-4-phenyl-1,3-thiazol-5-yl]-3(2H)-pyridazinone]
2 | 165 to 166 | CCCNc1nc(-c2ccccc2)c(-c2ccc(=O)n(C(C)C)n2)s1 [Example 73, 2-Isopropyl-6-[4-phenyl-2-(propylamino)-1,3-thiazol-5-yl]-3(2H)-pyridazinone]
3 | 165 to 166 | CC(C)n1nc(-c2sc(NCCN3CCCCC3)nc2-c2ccccc2)ccc1=O [Example 74, 2-Isopropyl-6-(4-phenyl-2-{[2-(1-piperidinyl)ethyl]amino}-1,3-thiazol-5-yl)-3(2H)-pyridazinone]
4 | 230 to 231 | CC(C)n1nc(-c2sc(NC=O)nc2-c2ccc(F)cc2)ccc1=O [Example 76, 4-(4-fluorophenyl)-5-(1-isopropyl-6-oxo-1,6-dihydro-3-pyridazinyl)-1,3-thiazol-2-ylformamide]
5 | 255.5 to 257 | CC(C)n1nc(-c2sc(N)nc2-c2ccc(F)cc2)ccc1=O [Example 77, 6-[2-amino-4-(4-fluorophenyl)-1,3-thiazol-5-yl]-2-isopropyl-3(2H)-pyridazinone]
6 | 233 to 235 | CC(C)n1nc(-c2sc(N)nc2-c2ccccc2F)ccc1=O [Example 79, 6-[2-Amino-4-(2-fluorophenyl)-1,3-thiazol-5-yl]-2-isopropyl-3(2H)-pyridazinone]
7 | 237 to 238 | CC(C)n1nc(-c2sc(N)nc2-c2cccc(F)c2)ccc1=O [Example 80, 6-[2-Amino-4-(3-fluorophenyl)-1,3-thiazol-5-yl]-2-isopropyl-3(2H)-pyridazinone]
8 | 235.5 to 237 | CC(C)n1nc(-c2sc(N)nc2-c2cccc(Cl)c2)ccc1=O [Example 81, 6-[2-Amino-4-(3-chlorophenyl)-1,3-thiazol-5-yl]-2-isopropyl-3(2H)-pyridazinone]
9 | 236 to 237.5 | CC(=O)Nc1nc(-c2ccc(F)cc2)c(-c2ccc(=O)n(C(C)C)n2)s1 [Example 82, N-[4-(4-fluorophenyl)-5-(1-isopropyl-6-oxo-1,6-dihydro-3-pyridazinyl)-1,3-thiazol-2-yl]acetamide]
10 | 202 to 203.5 | CC(C)n1nc(-c2sc(NC(=O)c3ccccc3)nc2-c2ccc(F)cc2)ccc1=O [Example 83, N-[4-(4-Fluorophenyl)-5-(1-isopropyl-6-oxo-1,6-dihydro-3-pyridazinyl)-1,3-thiazol-2-yl]-benzamide]
11 | > 250 | Nc1nc(-c2ccccc2)c(-c2ccc(=O)[nH]n2)s1 [Example 84, 6-(2-amino-4-phenyl-1,3-thiazol-5-yl)-3(2H)-pyridazinone]
12 | 238 to 241 | Cn1nc(-c2sc(N)nc2-c2ccccc2)ccc1=O [Example 85, 6-(2-amino-4-phenyl-1,3-thiazol-5-yl)-2-methyl-3(2H)-pyridazinone]
13 | 224 to 226 | CCCn1nc(-c2sc(N)nc2-c2ccccc2)ccc1=O [Example 86, 6-(2-Amino-4-phenyl-1,3-thiazol-5-yl)-2-propyl-3(2H)-pyridazinone]
14 | 208 to 209.5 | COCCn1nc(-c2sc(N)nc2-c2ccccc2)ccc1=O [Example 87, 6-(2-Amino-4-phenyl-1,3-thiazol-5-yl)-2-(2-methoxyethyl)-3(2H)-pyridazinone]
15 | 204 to 206 | Nc1nc(-c2ccccc2)c(-c2ccc(=O)n(CC3CC3)n2)s1 [Example 88, 6-(2-Amino-4-phenyl-1,3-thiazol-5-yl)-2-(cyclopropylmethyl)-3(2H)-pyridazinone]
16 | 190 to 193 | COC(=O)Cn1nc(-c2sc(N)nc2-c2ccccc2)ccc1=O [Example 89, Methyl [3-(2-amino-4-phenyl-1,3-thiazol-5-yl)-6-oxo-1 (6H)-pyridazinyl]acetate]
17 | 216 to 219 | CC(=O)Cn1nc(-c2sc(N)nc2-c2ccccc2)ccc1=O [Example 90, 6-(2-Amino-4-phenyl-1,3-thiazol-5-yl)-2-(2-oxopropyl)-3(2H)-pyridazinone]
18 | 163.5 to 165 | O=c1ccc(-c2sc(NCc3ccccc3)nc2-c2ccccc2)nn1Cc1ccccc1 [Example 92, 2-benzyl-6-[2-(benzylamino)-4-phenyl-1,3-thiazol-5-yl]-3(2H)-pyridazinone]
19 | 225 to 228 | Nc1nc(-c2ccccc2)c(-c2ccc(=O)n(Cc3ccccc3)n2)s1 [Example 92, 6-(2-Amino-4-phenyl-1,3-thiazol-5-yl)-2-benzyl-3(2H)-pyridazinone]

Row | melting point [°C] | SMILES
20 | 212 to 215 | C=CCn1nc(-c2sc(N)nc2-c2ccccc2)ccc1=O [Example 93, 2-Allyl-6-(2-amino-4-phenyl-1,3-thiazol-5-yl)-3(2H)-pyridazinone]
21 | 146 to 147 | C=CCNc1nc(-c2ccccc2)c(-c2ccc(=O)n(CC=C)n2)s1 [Example 93, 2-allyl-6-[2-(allylamino)-4-phenyl-1,3-thiazol-5-yl]-3(2H)-pyridazinone]
22 | 232 to 234 | CC(C)n1nc(-c2sc(NC=O)nc2-c2ccccc2)ccc1=O [Example 94, 5-(1-isopropyl-6-oxo-1,6-dihydro-3-pyridazinyl)-4-phenyl-1,3-thiazol-2-ylformamide]
23 | 198 to 199 | CC(C)n1nc(-c2sc(NC(=O)OC(C)(C)C)nc2-c2ccccc2)ccc1=O [Example 95, tert-butyl 5-(1-isopropyl-6-oxo-1,6-dihydro-3-pyridazinyl)-4-phenyl-1,3-thiazol-2-ylcarbamate]
24 | 192 to 194 | COCCNCc1ccc(C(=O)Nc2nc(-c3ccccc3)c(-c3ccc(=O)n(C(C)C)n3)s2)cc1 [Example 96, N-[5-(1-isopropyl-6-oxo-1,6-dihydro-3-pyridazinyl)-4-phenyl-1,3-thiazol-2-yl]-4-([(2-methoxyethyl)amino]methyl}benzamide]
25 | 224 to 227 | CC(C)n1nc(-c2sc(NC(=O)c3ccc(CN4CCN(C)CC4)cc3)nc2-c2ccccc2)ccc1=O [Example 97, N-(5-(1-Isopropyl-6-oxo-1,6-dihydro-3-pyridazinyl)-4-phenyl-1,3-thiazol-2-yl]-4-[(4-methyl-1-piperazinyl)methyl]benzamide]
26 | 157 to 158 | Cc1cccc(NC(=O)N(C)c2nc(-c3ccccc3)c(-c3ccc(=O)n(C(C)C)n3)s2)c1 [Example 99, N-[5-(1-isopropyl-6-oxo-1,6-dihydro-3-pyridazinyl)-4-phenyl-1,3-thiazol-2-yl]-N-methyl-N′-(3-methylphenyl)urea]
27 | 160 to 161 | CC(C)n1nc(-c2sc(NC(=O)Cn3ccnc3)nc2-c2ccccc2)ccc1=O [Example 102, 2-(1H-Imidazol-1-yl)-N-[5-(1-isopropyl-6-oxo-1,6-dihydro-3-pyridazinyl)-4-phenyl-1,3-thiazol-2-yl]acetamide]
28 | 144 to 145 | CC(C)n1nc(-c2sc(NC(=O)CNCc3ccccc3)nc2-c2ccccc2)ccc1=O [Example 103, 2-(Benzylamino)-N-[5-(1-isopropyl-6-oxo-1,6-dihydro-3-pyridazinyl)-4-phenyl-1,3-thiazol-2-yl]acetamide]
29 | 94 to 96 | CC(C)n1nc(-c2sc(NC(=O)CN(C)CCc3ccccn3)nc2-c2ccccc2)ccc1=O [Example 111, N-[5-(1-Isopropyl-6-oxo-1,6-dihydro-3-pyridazinyl)-4-phenyl-1,3-thiazol-2-yl]-2-{methyl[2-(2-pyridinyl)ethyl]amino}acetamide]
30 | 142 to 144 | CC(C)n1nc(-c2sc(NC(=O)CNCCO)nc2-c2ccccc2)ccc1=O [Example 117, 2-[(2-Hydroxyethyl)amino]-N-[5-(1-isopropyl-6-oxo-1,6-dihydro-3-pyridazinyl)-4-phenyl-1,3-thiazol-2-yl]acetamide]
31 | 155 to 157 | CC(C)n1nc(-c2sc(NC(=O)CN(C)CCN(C)C)nc2-c2ccccc2)ccc1=O [Example 118, 2-[(2-(Dimethylamino)ethyl)(methyl)amino]-N-[5-(1-isopropyl-6-oxo-1,6-dihydro-3-pyridazinyl)-4-phenyl-1,3-thiazol-2-yl]acetamide]
32 | 156 to 158 | CC(C)n1nc(-c2sc(NC(=O)CNCc3cccnc3)nc2-c2ccccc2)ccc1=O [Example 120, N-[5-(1-Isopropyl-6-oxo-1,6-dihydro-3-pyridazinyl)-4-phenyl-1,3-thiazol-2-yl]-2-[(3-pyridinylmethyl)amino]acetamide]
33 | 167 to 168 | COCCNCCC(=O)Nc1nc(-c2ccccc2)c(-c2ccc(=O)n(C(C)C)n2)s1 [Example 122, N-[5-(1-Isopropyl-6-oxo-1,6-dihydro-3-pyridazinyl)-4-phenyl-1,3-thiazol-2-Yl]-3-[(2-methoxyethyl)amino]propanamide]
34 | 197 to 198 | CC(C)n1nc(-c2sc(NC(=O)CCN3CCOCC3)nc2-c2ccccc2)ccc1=O [Example 123, N-[5-(1-Isopropyl-6-oxo-1,6-dihydro-3-pyridazinyl)-4-phenyl-1,3-thiazol-2-yl]-3-(4-morpholinyl)propanamide]
35 | 200 to 201 | CC(C)n1nc(-c2sc(NC(=O)CCNCc3ccccn3)nc2-c2ccccc2)ccc1=O [Example 124, N-[5-(1-Isopropyl-6-oxo-1,6-dihydro-3-pyridazinyl)-4-phenyl-1,3-thiazol-2-yl]-3-[(2-pyridinylmethyl)amino]propanamide]
36 | 189 to 190 | CC(C)n1nc(-c2sc(NC(=O)CN3CCCCC3)nc2-c2ccccc2)ccc1=O [Example 132, N-[5-(1 Isopropyl-6-oxo-1,6-dihydro-3-pyridazinyl)-4-phenyl-1,3-thiazol-2-yl]-2-(1-piperidinyl)acetamide]
37 | 131 to 133 | CC(C)n1nc(-c2sc(NC(=O)c3ccc(CN(C)CCN(C)C)cc3)nc2-c2ccccc2)ccc1=O [Example 137, 4-{[[2-(Dimethylamino)ethyl] (methyl)amino]methyl}-N-[5-(1-isopropyl-6-oxo-1,6-dihydro-3-pyridazinyl)-4-phenyl-1,3-thiazol-2-yl]benzamide]

— patent US20050004134A1, “Thiazole derivative and pharmaceutical use thereof” (priority 2001, published 2005)
